Measurements: US8946407B2, “Fructosylated mangiferin and preparation method therefor and use thereof” (priority 2011, dated 2015)

What was measured:
[1] = test system: Human chronic myelogenous leukemia cell strain K562; test: K562 cell toxicity test (MTT method); format: cell-based; details: for Average suppression rate (%) / OD value: 48 h; for Average suppression rate (%): K562; for OD value: K562, A490 MTT
Experimental: Human chronic myelogenous leukemia cell strain K562, purchased from the cell bank of Shanghai Cell Research Institute of Chinese Academy of Sciences; mangiferin, purchased from Nanjing Zelang Medical Science and Technology Co., Ltd.; monofructosyl-β (2,6)-mangiferin is prepared with the method described in this invention, with purity over 99% as determined by high performance liquid chromatography. Drug liquid and its storage: weigh 8.44 mg mangiferin powder and dissolve it in 2 mL DMSO to prepare it into 10 mmol/L mangiferin; weigh 11.68 mg monofructosyl-β (2,6)-mangiferin powder and dissolve it in 2 mL DMSO to prepare it into 10 mmol/L monofructosyl-β (2,6)-mangiferin; they are filtered with a 0.22 μm filter, packed in 1000 μL/doff and stored at −20° C., meanwhile, high concentration DMSO is filtered with a 0.22 μm filter for use as control. The K-562 cells are cultured in RPMI-1640 complete culture medium containing inactivated calf serum at volume fraction of 10%, 100 U penicillin and streptomycin, in an incubating box at 37° C., with 5% CO2 and at saturated humidity. Take K-562 cells in logarithmic growing phase, adjust its concentration to 1×10^5/mL, and inoculate them in a 96-hole culture plate, each hole with 90 μL of suspended cell liquid, the experimental group is treated with mangiferin and monofructosyl-β (2,6)-mangiferin at different end concentration (1, 5, 10, 20, 50, 100, 150 and 200 μmol/L), with 10 μL in each hole, the DMSO solvent control group is added with 20 μL PBS containing the corresponding drug solvent, and the blank group is added with 20 μL PBS. For each drug concentration, 6 repeating holes are provided. The culture plate is put back into the cell culture box, add 20 μL MTT (5 mg/mL) solution after 48 h, and after further incubation of 4 h in the culture box, add triple liquid 100 μL into each hole, put it still overnight to allow full dissolution of crystal. Vibrate it with oscillator for 20 min and determine the light absorption at 490 nm with a fully automatic ELISA instrument, and calculate the average suppression rate, the suppression rate (%)=(control group A490−test group A490)/control group A490), the experiment was repeated three times. Relevant analysis and Student t tests in Microsoft Excel 2003 were used, and data are presented in.

dissolvability at 25° C. = format: physicochemical
Experimental: As determined, at 25° C., the dissolvability of monofructosyl-β-(2,6)-mangiferin is 350 g/L, and that of bifructosyl-β-(2,6)-mangiferin is 1200 g/L, respectively 3.5×103 times and 1.2×104 times that of mangiferin (0.1 g/L) under the same condition.

Row | dissolvability (dissolvability at 25° C.) [g/L] | Molecule | Average suppression rate (%) ([1]; 1 μmol/L) | OD value ([1]; 1 μmol/L) | Average suppression rate (%) ([1]; 5 μmol/L) | OD value ([1]; 5 μmol/L) | Average suppression rate (%) ([1]; 10 μmol/L) | OD value ([1]; 10 μmol/L) | Average suppression rate (%) ([1]; 20 μmol/L) | OD value ([1]; 20 μmol/L) | Average suppression rate (%) ([1]; 50 μmol/L) | OD value ([1]; 50 μmol/L) | Average suppression rate (%) ([1]; 100 μmol/L) | OD value ([1]; 100 μmol/L) | Average suppression rate (%) ([1]; 150 μmol/L) | OD value ([1]; 150 μmol/L) | Average suppression rate (%) ([1]; 200 μmol/L) | OD value ([1]; 200 μmol/L) | effect on K562 cell proliferation (in words) ([1]; after acting for 48 h, MTT method)
1 |  | O=c1c2cc(O)c(O)cc2oc2cc(O)c([C@@H]3O[C@H](CO)[C@@H](O)[C@H](O)[C@H]3O)c(O)c12 [mangiferin] | 7.74 | 0.952 ± 0.034 | 8.39 | 0.945 ± 0.041 | 10.75 | 0.921 ± 0.036 | 3.52 | 0.995 ± 0.086 | −3.9 | 1.096 ± 0.143 | −16.08 | 1.198 ± 0.048 | −10.61 | 1.141 ± 0.049 | −14.56 | 1.182 ± 0.175 | 
2 | 1200 | bifructosyl-β-(2,6)-mangiferin |  |  |  |  |  |  |  |  |  |  |  |  |  |  |  |  | 
3 | 350 | monofructosyl-β-(2,6)-mangiferin | 4.53 | 0.982 ± 0.039 | 8.79 | 0.938 ± 0.102 | 8.19 | 0.944 ± 0.053 | 8.56 | 0.941 ± 0.040 | 8.87 | 0.938 ± 0.041 | 23.19 | 0.790 ± 0.098 | 36.53 | 0.653 ± 0.026 | 41.48 | 0.602 ± 0.021 | can markedly suppress the proliferation
